# From patent US11584733B2, “Selective histone deacetylase inhibitors for the treatment of human disease” (Shuttle Pharmaceuticals, Inc., priority 2017, dated 2023)
# What was measured:
# Assay type in all cases: biochemical
# [1] = test system: Pan HDAC (HeLa Nuclear Extract); assay: Pan HDAC assay (Enzo Fluor-de-Lys fluorometric kit, HeLa Nuclear Extract)
# Procedure: The Pan HDAC assays described herein were performed as follows:
# Materials: Enzo Fluor-de-Lys HDAC fluorometric activity assay kit; 360 nm excitation 460 nm emission Plate Reader; Disposable pipettes; Pipet-aid; Pipette tips; Micro-pipetter; DMSO; Sterile micro-tubes and conical tubes; and Micro-centrifuge.
# (§1) Test compounds and control preparation: All test compounds' stock solutions were made in 100% DMSO. Test compound dilutions were made in HDAC Assay buffer with a final concentration of DMSO less than or equal to 1%. Vehicle control was HDAC Assay buffer with 1% DMSO.
# (§2) The reagents for the assay were prepared as follows:
# (§3) 1. All kit components were defrosted and these, and all dilutions described below, were kept on ice until use. All undiluted kit components are stable for several hours on ice.
# 2. A sufficient amount of HeLa Nuclear Extract (BML-KI140) or other HDAC source diluted in Assay Buffer (BML-KI143) was prepared to provide for the assays that were performed (# of wells×15 μl). A 30-fold dilution of the HeLa Extract means that 15 μL contains 0.5 μl of the undiluted Extract, an appropriate amount to use per well.
# 3. Dilution(s) of SAHA and/or Test Inhibitors were prepared in Assay Buffer (BML-K1143). Since 10 μl were used per well, and since the final volume of the HDAC reaction was 50 μl, these inhibitor dilutions were 5× their final concentration.
# 4. Dilution(s) of the Fluor de Lys® Substrate (BML-KI104; 50 mM) were prepared in Assay Buffer (BML-K1143) that were 2× the desired final concentration(s). For inhibitor screening, substrate concentrations at or below the Km are recommended. Twenty-five μL were used per well. Initial dilutions of 25-fold or greater in Assay Buffer (2.0 mM or less) yielded stable solutions (see NOTE on freezing and thawing below). Rapid mixing and dilution into room temperature buffer helped to prevent precipitation at high substrate concentration. […]
# (§4) 6. Samples were read in a microtiter-plate reading fluorimeter capable of excitation at a wavelength in the range 350-380 nm and detection of emitted light in the range 440-460 nm.
# Human recombinant HDAC1 = Human recombinant HDAC1 (Homo sapiens, UniProt Q13547); assay: HDAC isomer assay, Fluor-de-Lys, HDAC1
# Procedure: (§5) The HDAC isomer (HDAC1, 3, and 6) assays were performed as follows:
# (§6) Materials: Human recombinant HDAC isomer (HDAC1, HDAC3, and HDAC6); Fluor-de-Lys HDAC substrates; 360 nm excitation 460 nm emission Plate Reader; Disposable pipettes; Pipet-aid; Pipette tips; Micro-pipetter; DMSO; Sterile micro-tubes and conical tubes; and Micro-centrifuge.
# as §1, §2, §3
# (§7) 2. A sufficient amount of HDAC source diluted in Assay Buffer (BML-KI143) was prepared to provide for the assays that were performed (# of wells×15 μl). A 30-fold dilution of the HeLa Extract means that 15p L contains 0.5 μl of the undiluted Extract, an appropriate amount to use per well.
# (§8) 3. Dilution(s) of SAHA and/or Test Inhibitors were prepared in Assay Buffer (BML-KI143). […]
# as §4
# Human recombinant HDAC3 = Human recombinant HDAC3 (Homo sapiens, UniProt O15379); assay: HDAC isomer assay, Fluor-de-Lys, HDAC3
# Procedure: as §5, §6, §1, §2, §3, §7, §8, §4
# Chain of Human recombinant HDAC3 (O15379 whole entry): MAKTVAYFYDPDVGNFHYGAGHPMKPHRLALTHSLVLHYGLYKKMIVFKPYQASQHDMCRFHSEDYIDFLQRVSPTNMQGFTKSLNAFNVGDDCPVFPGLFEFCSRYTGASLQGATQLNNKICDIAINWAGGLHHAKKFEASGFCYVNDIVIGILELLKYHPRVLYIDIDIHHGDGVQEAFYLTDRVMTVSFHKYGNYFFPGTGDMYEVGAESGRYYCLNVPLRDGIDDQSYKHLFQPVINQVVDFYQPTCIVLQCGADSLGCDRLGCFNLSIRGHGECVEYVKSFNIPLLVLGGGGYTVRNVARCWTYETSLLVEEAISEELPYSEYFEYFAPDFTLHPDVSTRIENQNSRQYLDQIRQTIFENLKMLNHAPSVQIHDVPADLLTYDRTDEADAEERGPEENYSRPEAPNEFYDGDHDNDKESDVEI
# Chain of Human recombinant HDAC3 (Q9Y618 395-489 partner limits assumed): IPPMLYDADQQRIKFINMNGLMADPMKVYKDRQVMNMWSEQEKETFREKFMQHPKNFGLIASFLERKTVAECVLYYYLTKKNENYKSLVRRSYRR
# Chain of Human recombinant HDAC1 (Q13547 whole entry): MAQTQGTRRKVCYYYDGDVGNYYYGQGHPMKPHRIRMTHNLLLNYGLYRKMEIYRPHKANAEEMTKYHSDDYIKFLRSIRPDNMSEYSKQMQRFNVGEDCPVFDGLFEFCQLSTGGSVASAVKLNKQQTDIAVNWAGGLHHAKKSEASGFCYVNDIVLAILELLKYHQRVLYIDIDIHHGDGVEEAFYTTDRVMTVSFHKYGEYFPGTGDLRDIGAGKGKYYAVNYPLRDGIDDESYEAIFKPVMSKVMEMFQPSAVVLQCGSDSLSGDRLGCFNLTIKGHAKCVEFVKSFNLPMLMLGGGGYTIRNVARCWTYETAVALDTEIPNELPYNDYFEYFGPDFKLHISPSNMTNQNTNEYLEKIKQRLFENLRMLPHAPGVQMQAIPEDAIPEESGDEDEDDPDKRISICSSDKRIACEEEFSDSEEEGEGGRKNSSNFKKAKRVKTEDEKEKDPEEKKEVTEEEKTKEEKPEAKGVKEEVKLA
EC50 ([1]; FIG. 4) [nM],"EC50 (Human recombinant HDAC1; Example 4, FIG. 9) [nM]","IC50 (Human recombinant HDAC1; Example 6, FIG. 18, 2 mg/mL formulation in 5% DMSO/40% PEG 400/55% PBS, read-out: IC50 against HDAC1 protein) [nM]","EC50 (Human recombinant HDAC3; Example 4, FIG. 10) [nM]","IC50 (Human recombinant HDAC3; Example 6, FIG. 18, 2 mg/mL formulation in 5% DMSO/40% PEG 400/55% PBS, read-out: IC50 against HDAC3 protein) [nM]","IC50 ([1]; Example 6, FIG. 18, 2 mg/mL formulation in 5% DMSO/40% PEG 400/55% PBS, read-out: IC50 against the PAN HDAC) [nM]",Compound,"inhibitor activity in the pan-HDACs assays ([1]; between 5 μM and 15 μM, FIGS. 2 to 4)"
16400,–,–,–,–,–,"O=C(CCCCCCC(=O)NC1CCC(=O)NC1=O)NO (stereo not shown) [SP-2-59, N^1-(2,6-dioxopiperidin-3-yl)-N^8-hydroxyoctanediamide]",minimal inhibitor activity
–,1540,1540,3070,3070,1890,"O=C(CCCCCCC(=O)Nc1cccc2c1CN(C1CCC(=O)NC1=O)C2=O)NO (stereo not shown) [SP-2-93, N^1-(2-(2,6-dioxopiperidin-3-yl)-1-oxoisoindolin-4-yl)-N^8-hydroxyoctanediamide]",–
